Earlier results on four compounds are cited in publication PMC2637266, “Quantification of gamma-secretase modulation differentiates inhibitor compound selectivity between two substrates Notch and amyloid precursor protein” (Molecular Brain, 2008).

SMILES strings stand for the structures.

One data set relates to plasma Aβ40. Further details: method as in PMID 18090456, PMID 16505324, PMID 18695053. To be noted: AD patients; cited from earlier work.
Data set [1] deals with γ-secretase substrates APP, ErbB-4, and Notch. Details: method as in PMID 12777371. To be noted: cited from earlier work.

With `CC(C)[C@H](O)C(=O)N[C@@H](C)C(=O)N[C@@H]1C(=O)N(C)CCc2ccccc21.O.O` [LY450139 dihydrate], in the data set on plasma Aβ40, the “plasma Aβ40” value is “reduces plasma Aβ40” and the tolerability entry was “well tolerated”.

Consider `CC(C)Cc1ccc(C(C)C(=O)O)cc1` (stereo not shown) [ibuprofen], for which the “generation of intracellular domains (ICDs) of APP, ErbB-4, and Notch” value (“generation of intracellular domains” for short) in data set [1] is “without affecting the generation”.

On to `COc1ccc2c(c1)c(CC(=O)O)c(C)n2C(=O)c1ccc(Cl)cc1` [indomethacin], for which, in data set [1], the “cleavage of γ-secretase substrates at the middle of transmembrane domain” value is on record as “specifically block the cleavage”; the “generation of intracellular domains” value is “without affecting the generation”. Regarding `CSc1ccc(/C=C2/C(C)=C(CC(=O)O)c3cc(F)ccc32)cc1` [sulindac sulphide], in data set [1], the “cleavage of γ-secretase substrates at the middle of transmembrane domain” value is “specifically block the cleavage”; the “generation of intracellular domains” value is “without affecting the generation”.
